Patent US20260217652A1, “PHENYL-SUBSTITUTED HETEROARYL COMPOUND AND PHARMACEUTICAL COMPOSITION COMPRISING SAME, PREPARATION METHOD THEREFOR AND USE THEREOF” (SHANGHAI MEIYUE BIOTECH DEVELOPMENT CO., LTD., priority 2023, published 2026)
pIC50: −log10 of the molar value.

Legend:
[1] = target: T1, p38 MAPK/MK5 (Homo sapiens, UniProt Q16539); experiment: In vitro activity assay of p38 MAPK/MK5 (Z-LYTE kinase assay kit); assay type: biochemical; settings: active p38α, inactive MK5, Ser/Thr 4; 4-hour reaction at 20° C.
T1 construct: purchased Carna (p38α); Abcam (MK5) 04-152; 217826
Experimental: The inhibitory effect of the compound on p38 MAPK/MK5 was evaluated using the Z-LYTE kinase assay kit (Thermo, PV3177). The test compound was dissolved in DMSO to obtain a 10 mM stock solution and stored at −20° C. for future use. The initial concentration of the compound was […], with 1% DMSO, 5-fold serial dilution, 8 concentrations, and duplicate wells. […] After a 4-hour reaction at 20° C., Development Reagent A diluted 2048-fold was added to each well, followed by incubation at room temperature for 1 hour. The reaction was terminated by adding 5 µL of stop buffer, and the plate was read using a microplate reader (Ex. 400 nm, Em. 445 nm; Ex. 400 nm, Em. 520 nm). The concentration-effect curve was fitted using GraphPad Prism 8 software, and the compound concentration resulting in 50% inhibition, IC50, was calculated.

[2] = target: T2, p38 MAPK/ATF2 (Homo sapiens, UniProt Q16539); experiment: In vitro activity assay of p38 MAPK/ATF2 (HTRF); assay type: biochemical; settings: p38α, Human ATF2 Protein, ATP; 35 min at 20° C.
T2 construct: purchased Carna Biosciences (p38α); Sino Biological (ATF2) 04-152; 11599-H20B
Experimental: The inhibitory effect of the compound on p38a-catalyzed ATF2 was evaluated by the HTRF method. The test compound was dissolved in DMSO to obtain a 10 mM stock solution and stored at −20° C. for future use. The initial concentration of the compound was 10 μM, with 0.25% DMSO, 5-fold serial dilution, 8 concentrations, and duplicate wells. The reaction buffer, consisting of 40 mM Tris pH 7.5, 20 mM MgCl2, 0.1 mg/mL BSA, and 50 μM DTT, was used to prepare 3.5×p38α (MAPK14, Carna Biosciences, 04-152) protein working solution, 3.5×Human ATF2 Protein (Sino Biological, 11599-H20B) working solution, and 3.5×ATP working solution. The reaction was terminated with 10 mM EDTA. The final 14 μL reaction system was performed in a 96-well plate (cisbio, 66PL96025), containing 0.29 ng/μL p38a, […] Human ATF2 Protein, and 25 µM ATP. After reacting at 20° C. for 35 min, the pre-prepared antibody solution (cibio, 63ADK015PEG, Phospho-ATF2 Eu Cryptate antibody, Phospho-ATF2 d2 antibody, diluted 40-fold with Detection buffer) was added to each well and incubated overnight at room temperature. The samples were then measured using a microplate reader (HTRF compatible reader). The concentration-effect curve was fitted using GraphPad Prism 8 software, and the compound concentration resulting in 50% inhibition, IC50, was calculated.

[3] = test system: TNF-α in human PBMC cells; experiment: In vitro TNF-α activity assay in human PBMC cell supernatant (LPS, ELISA); assay type: cell-based; settings: Homo sapiens, PBMC, 24 h, LPS 100 ng/mL, read-out: p38 MAPK/TNF-α IC50
Experimental: The inhibitory effect of the compound on TNF-α in the supernatant of human PBMC cells was evaluated using an ELISA detection kit (Beyotime, PI518). The test compound was dissolved in DMSO to obtain a 10 mM stock solution and stored at −20° C. for future use. The initial concentration of the compound was […], followed by 5-fold serial dilution to obtain 6 concentrations. Cells were plated in duplicate, and ELISA was performed in single wells. The final concentration of DMSO was 0.4%. Alternatively, the initial concentration of the compound, dilution factor, number of concentration gradients, and replicates could be adjusted based on the specific screening conditions.
Fresh human peripheral blood mononuclear cells (PBMCs) (Sailybio) were seeded at a density of 2×10^5 cells per well in a 96-well plate (Corning, 3599), with each well containing 100 μL of RPMI-1640 (Gibco #A1049101)+10% FBS (Gibco, 10099141C), and incubated overnight at 37° C. under 5% CO2. Test compounds were added to the 96-well culture plate at a volume of 25 μL per well. After 1 hour, 5 μL of LPS was added to achieve a final concentration of 100 ng/mL. No LPS and compound were added to the negative control wells, and no compound was added to the positive control wells. The mixture was further incubated for 24 hours at 37° C. under 5% CO2. Subsequently, the cell culture supernatant was collected by centrifugation at 500 rcf for 8 minutes. The concentration of TNF-α was measured according to the operation manual of the ELISA kit. The concentration-effect curve was fitted using GraphPad Prism 8 software, and the compound concentration resulting in 50% inhibition, IC50, was calculated.

[4] = In vitro liver microsome stability, human; assay type: in vitro ADME; settings: liver microsomes, 0.5 mg/mL microsomes, 1 μM compound, NADPH, 37° C., read-out: Human liver microsomes Half-life T1/2
Experimental: The reference compound used in this experiment was Ketanserin, and the final concentration of microsomes in the experimental system was 0.5 mg/mL. The PBS buffer was a 50 mM K2HPO4 buffer. The concentration of the test compound was 1 μM. The microsomes were added to PBS, and the control/test compounds were respectively added to the corresponding reaction systems, mixed thoroughly, and pre-incubated in a 37° C. water bath for 5 minutes. The reaction was initiated by adding 20 mM NADPH solution under 37° C. water bath conditions (for the No NADPH samples, an equal volume of PBS solution was used as a substitute for the 20 mM NADPH solution). At the reaction time points of 0 min, 10 min, 30 mun, 60 min, and 90 min, 30 μL of reaction samples were taken from each reaction system (for the No NADPH samples, sampling was performed at 0 min and 90 min), and the reaction was immediately terminated by adding 300 μL of the internal standard acetonitrile solution. After centrifugation at 4000 rpm, the supernatant was taken and mixed thoroughly with an equal volume of pure water. The samples at each time point were analyzed by LC-MS/MS (AB Triple Quard 5500) to determine the compound content, and the T1/2 was calculated.

T1 sequence (Q16539 whole entry): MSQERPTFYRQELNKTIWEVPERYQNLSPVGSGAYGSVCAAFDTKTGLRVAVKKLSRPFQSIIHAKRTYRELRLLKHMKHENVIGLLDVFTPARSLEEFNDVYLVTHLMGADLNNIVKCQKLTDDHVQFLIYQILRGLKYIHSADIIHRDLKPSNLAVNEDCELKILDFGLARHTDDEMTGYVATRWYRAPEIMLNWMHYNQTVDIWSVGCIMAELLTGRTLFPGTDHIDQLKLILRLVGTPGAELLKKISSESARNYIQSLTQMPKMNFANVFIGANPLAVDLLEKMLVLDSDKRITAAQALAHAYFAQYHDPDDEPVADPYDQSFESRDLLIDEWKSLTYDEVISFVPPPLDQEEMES

CNC(=O)c1cccc(-c2ncc(C)c(-n3c(C)cc(OCc4ncc(F)cc4F)c(Cl)c3=O)c2F)c1 [Compound 31-P1]
pIC50 [1]: 5.36
pIC50 [2]: 5.73
pIC50 [3]: 8.42
half-life at 1 μM [4]: > 4.66 h
